# Data published in patent publication US20230181614A1, “ADMINISTRATION OF CITICOLINE TO IMPROVE COGNITIVE PERFORMANCE, ATTENTIONAL PERFORMANCE, AND MOTOR FUNCTION” (KYOWA HAKKO BIO CO., LTD., priority 2014, published 2023).
# Test system: Healthy subjects, ages 13-18
# Test: Positive and Negative Affect Scale for Children (PANAS-C)
# Type: in vivo, human
# From the text: Study participants were screened by telephone prior to study enrollment. Healthy subjects, ages 13-18, with no significant medical conditions and no history of co-morbid psychiatric disorder, current Axis I or II diagnosis, or previous participation in a pharmacotherapeutic trial, were selected. Use of any psychotropic medication or any previous head injury resulting in loss of consciousness for 5 or more minutes were used as exclusion criteria. While no participant met criteria for a neuropsychiatric disorder at enrollment, clinical assessments were still completed throughout the study to evaluate changes in mood state. In addition, self-reports of sleep habits, lifestyle, and exercise routines were also administered at baseline as well as at each study visit to assess changes in health habits during study participation. Following the completion of Visit 1 assessment, participants were given their 28-day supply of citicoline (250 mg or 500 mg) or placebo, which was randomly assigned. They were instructed to take one capsule a day every day for the next 28 days. Visit 2 occurred fourteen days after Visit 1. At Visit 2, the remaining study pills were counted and participant dosage calendars were checked to ensure compliance with the protocol. Additional neuropsychological measures and clinical assessments were administered during this visit. Participants returned for Visit 3 fourteen days later, on the 28th day of their study participation. The pill bottle and the dosage calendar were collected from each participant. Urine and blood were again obtained. Participants also participated in similar clinical and neuropsychological testing and clinical measures that were given during visit 1. The […] is a self-report questionnaire on which participants rate to what extent they are currently experiencing a variety of positive and negative emotions such as “excited” and “mad.” The PANAS was administered during each of the three visits to assess participant affect prior to taking the study drug as well as after taking the study drug over a period of 28 days.
smiles,measurement,setting,value
"C[N+](C)(C)CCOP(=O)(O)OP(=O)([O-])OC[C@H]1O[C@@H](n2ccc(N)nc2=O)[C@H](O)[C@@H]1O [citicoline, Cytidine 5′-diphosphocholine]","PANAS-C Negative Score, Mean","250 mg/day, V1 (baseline)",23.15
same,"PANAS-C Positive Score, Mean","250 mg/day, V1 (baseline)",45.74
same,"PANAS-C Negative Score, Mean","250 mg/day, V3 (day 28)",19.81
same,"PANAS-C Positive Score, Mean","250 mg/day, V3 (day 28)",41.93
same,"PANAS-C Negative Score, Mean","250 mg/day, V3-V1",-3.33
same,"PANAS-C Positive Score, Mean","250 mg/day, V3-V1",-3.81
same,"PANAS-C Negative Score, Mean","500 mg/day, V1 (baseline)",21.55
same,"PANAS-C Positive Score, Mean","500 mg/day, V1 (baseline)",43.30
same,"PANAS-C Negative Score, Mean","500 mg/day, V3 (day 28)",18.00
same,"PANAS-C Positive Score, Mean","500 mg/day, V3 (day 28)",41.78
same,"PANAS-C Negative Score, Mean","500 mg/day, V3-V1",-3.55
same,"PANAS-C Positive Score, Mean","500 mg/day, V3-V1",-1.52
same,"PANAS-C positive emotional attributes, between groups","Placebo vs 500 mg/day, visit 3, p=0.39",No significant effect
